Patent US20240247298A1, “METHOD FOR DETECTING LIVE LACTIC ACID BACTERIA WITH CARBOHYDRATE METABOLISM ACTIVITY” (KABUSHIKI KAISHA YAKULT HONSHA, priority 2021, published 2024)

Columns and labels:
Assay type in all cases: cell-based, Lacticaseibacillus paracasei YIT 9029
LcS [1] = assay: cF excretion activity by addition of various saccharides of LcS (cFDA/PI double staining, flow cytometry); details: LcS from New Yakult suspended in 1% saccharide solution; cFDA 50 μM, PI 30 μM
Description: (§1) A beverage or food containing LcS (New Yakult: manufactured by Yakult Honsha Co., Ltd.) stored at about 4° C. within 16 days after production was diluted 10-fold with DPBS, then washed by centrifugation three times with DPBS, and the cell pellet was collected. The cell pellet obtained above was suspended in a 1% (V/W) solution in which a saccharide shown in Table 1 was dissolved in purified water. Further, the suspension was diluted with DPBS so that the cell concentration in the suspension was about 10^6 cells/mL, and cFDA was added thereto at a final concentration of 50 μM, and the resultant was left to stand at 30° C. for 15 minutes. Subsequently, propidium iodide was added thereto at a final concentration of 30 μM, and the resultant was left to stand at room temperature for 15 minutes, and then subjected to FACSAriaTM fusion (manufactured by Becton Dickinson) to measure the cF fluorescence intensity. A case where 90% or more of the total bacterial cells were counted as cF^- was determined to have cF excretion activity. In Table 1, those determined to have cF excretion activity are indicated by +, and those determined to have no cF excretion activity are indicated by -. The assimilation of a saccharide was examined using AP[…] (manufactured by bioMérieux Japan Co., Ltd.), which is a kit for identifying bacteria. A saccharide that can be assimilated by LcS is indicated by +, and a saccharide that cannot be assimilated by LCS is indicated by -.

LcS [2] = assay: Assimilation of a saccharide examined using API50cH; parameters: key: A saccharide that can be assimilated by LcS is indicated by +; a saccharide that cannot be assimilated by LCS is indicated by −; details: assimilation by LcS, API50cH kit
Description: as §1, with “The” for “A beverage or food containing LcS (New Yakult: manufactured by Yakult Honsha Co., Ltd.) stored at about 4° C. within 16 days after production was diluted 10-fold with DPBS, then washed by centrifugation three times with DPBS, and the cell pellet was collected. The”

LcS [3] = assay: Time course of cF accumulation and cF excretion of LcS
Description: A cultured bacterial solution of LcS in MRS medium was washed by centrifugation with Dulbecco's PBS (DPBS: manufactured by Thermo Fisher Scientific, Inc.), thereby removing saccharides. CFDA was added to the DPBS suspension of LcS obtained above at a final concentration of 50 μM (t=0), and cF accumulation from 0 to 20 minutes thereafter was examined by Gallios. In addition, to the DPBS suspension of LcS obtained above, CFDA was added at a final concentration of 50 μM, and the resultant was left to stand at 30° C. for 30 minutes to allow cF to accumulate in the bacterial cells. Subsequently, glucose was added at a final concentration of 10 mM (t=0), and cF excretion in 15 minutes thereafter was examined. Further, to the DPBS suspension of LcS obtained above, CFDA was added at a final concentration of 50 μM, and the resultant was left to stand at 30° C. for 30 minutes to allow cF to accumulate in the bacterial cells. Subsequently, glucose was added at a final concentration of 0.001 mM, 0.01 mM, 0.1 mM, or 1 mM (t=0), and cF excretion in 15 minutes thereafter was examined.

Row | Compound | cF excretion activity (LcS [1]) | Assimilability (LcS [2]) | further results
1 | O=CC[C@@H](O)[C@@H](O)[C@H](O)CO [2-deoxy-D-galactose] | − (those determined to have no cF excretion activity are indicated by −) |  | 
2 | O=CC[C@@H](O)[C@H](O)[C@H](O)CO [2-deoxy-D-glucose] | − (those determined to have no cF excretion activity are indicated by −) |  | 
3 | O=C[C@H](O)[C@@H](O)[C@@H](O)[C@H](O)CO [D-galactose] | + (A case where 90% or more of the total bacterial cells were counted as cF^− was determined to have cF excretion activity) | + | 
4 | O=C[C@H](O)[C@@H](O)[C@H](O)[C@H](O)CO [D-glucose] | + (A case where 90% or more of the total bacterial cells were counted as cF^− was determined to have cF excretion activity) | + | cF excretion (LcS [3]; glucose final concentration 0.001 mM): significant delay in excretion; cF excretion (LcS [3]; glucose final concentration 0.01 mM): slight delay in excretion; time after which cF began to be rapidly excreted (LcS [3]; glucose final concentration 10 mM, LcS with cF accumulated in advance): about 3 minutes
5 | O=C[C@@H](O)[C@@H](O)[C@H](O)[C@H](O)CO [D-mannose] | + (A case where 90% or more of the total bacterial cells were counted as cF^− was determined to have cF excretion activity) | + | 
6 | O=C[C@H](O)[C@@H](O)[C@@H](O)CO [L-arabinose] | − (those determined to have no cF excretion activity are indicated by −) | − | 
7 | C[C@H](O)[C@H](O)[C@@H](O)[C@@H](O)C=O [L-rhamnose] | − (those determined to have no cF excretion activity are indicated by −) | − | 
8 | O=C(CO)[C@@H](O)[C@H](O)[C@@H](O)CO [L-sorbose] | − (those determined to have no cF excretion activity are indicated by −) | + | 
9 | OC[C@H]1O[C@@H](O[C@H]2[C@H](O)[C@@H](O)C(O)O[C@@H]2CO)[C@H](O)[C@@H](O)[C@H]1O (stereo partly shown) [Lactose] | − (those determined to have no cF excretion activity are indicated by −) | + | 
10 | OC[C@H]1O[C@@](CO)(O[C@H]2O[C@H](CO)[C@@H](O)[C@H](O)[C@H]2O)[C@@H](O)[C@@H]1O [sucrose] | − (those determined to have no cF excretion activity are indicated by −) | + | 
11 | carboxyfluorescein diacetate [cFDA] |  |  | time after which cF accumulation amount was almost saturated (LcS [3]; cFDA 50 μM, no sugar, DPBS suspension of LcS): 20 min
